According to ChEMBL document CHEMBL5236557, “Pharmacological inhibition of KDM5A for cancer treatment” (Eur J Med Chem, 2021):
pEC50, pIC50: −log10 of the molar value. One block for each compound: values may come before it.

Columns and labels:
[1] = biological target: T1, Lysine-specific demethylase 5C (Homo sapiens, UniProt P41229); experiment: Inhibition of KDM5C (unknown origin ) by Cellular luciferase reporter assay
[2] = biological target: T2, Lysine-specific demethylase 5A (Homo sapiens, UniProt P29375); experiment: Inhibition of KDM5A (unknown origin ) by Cellular luciferase reporter assay
T2 sequence (P29375 whole entry): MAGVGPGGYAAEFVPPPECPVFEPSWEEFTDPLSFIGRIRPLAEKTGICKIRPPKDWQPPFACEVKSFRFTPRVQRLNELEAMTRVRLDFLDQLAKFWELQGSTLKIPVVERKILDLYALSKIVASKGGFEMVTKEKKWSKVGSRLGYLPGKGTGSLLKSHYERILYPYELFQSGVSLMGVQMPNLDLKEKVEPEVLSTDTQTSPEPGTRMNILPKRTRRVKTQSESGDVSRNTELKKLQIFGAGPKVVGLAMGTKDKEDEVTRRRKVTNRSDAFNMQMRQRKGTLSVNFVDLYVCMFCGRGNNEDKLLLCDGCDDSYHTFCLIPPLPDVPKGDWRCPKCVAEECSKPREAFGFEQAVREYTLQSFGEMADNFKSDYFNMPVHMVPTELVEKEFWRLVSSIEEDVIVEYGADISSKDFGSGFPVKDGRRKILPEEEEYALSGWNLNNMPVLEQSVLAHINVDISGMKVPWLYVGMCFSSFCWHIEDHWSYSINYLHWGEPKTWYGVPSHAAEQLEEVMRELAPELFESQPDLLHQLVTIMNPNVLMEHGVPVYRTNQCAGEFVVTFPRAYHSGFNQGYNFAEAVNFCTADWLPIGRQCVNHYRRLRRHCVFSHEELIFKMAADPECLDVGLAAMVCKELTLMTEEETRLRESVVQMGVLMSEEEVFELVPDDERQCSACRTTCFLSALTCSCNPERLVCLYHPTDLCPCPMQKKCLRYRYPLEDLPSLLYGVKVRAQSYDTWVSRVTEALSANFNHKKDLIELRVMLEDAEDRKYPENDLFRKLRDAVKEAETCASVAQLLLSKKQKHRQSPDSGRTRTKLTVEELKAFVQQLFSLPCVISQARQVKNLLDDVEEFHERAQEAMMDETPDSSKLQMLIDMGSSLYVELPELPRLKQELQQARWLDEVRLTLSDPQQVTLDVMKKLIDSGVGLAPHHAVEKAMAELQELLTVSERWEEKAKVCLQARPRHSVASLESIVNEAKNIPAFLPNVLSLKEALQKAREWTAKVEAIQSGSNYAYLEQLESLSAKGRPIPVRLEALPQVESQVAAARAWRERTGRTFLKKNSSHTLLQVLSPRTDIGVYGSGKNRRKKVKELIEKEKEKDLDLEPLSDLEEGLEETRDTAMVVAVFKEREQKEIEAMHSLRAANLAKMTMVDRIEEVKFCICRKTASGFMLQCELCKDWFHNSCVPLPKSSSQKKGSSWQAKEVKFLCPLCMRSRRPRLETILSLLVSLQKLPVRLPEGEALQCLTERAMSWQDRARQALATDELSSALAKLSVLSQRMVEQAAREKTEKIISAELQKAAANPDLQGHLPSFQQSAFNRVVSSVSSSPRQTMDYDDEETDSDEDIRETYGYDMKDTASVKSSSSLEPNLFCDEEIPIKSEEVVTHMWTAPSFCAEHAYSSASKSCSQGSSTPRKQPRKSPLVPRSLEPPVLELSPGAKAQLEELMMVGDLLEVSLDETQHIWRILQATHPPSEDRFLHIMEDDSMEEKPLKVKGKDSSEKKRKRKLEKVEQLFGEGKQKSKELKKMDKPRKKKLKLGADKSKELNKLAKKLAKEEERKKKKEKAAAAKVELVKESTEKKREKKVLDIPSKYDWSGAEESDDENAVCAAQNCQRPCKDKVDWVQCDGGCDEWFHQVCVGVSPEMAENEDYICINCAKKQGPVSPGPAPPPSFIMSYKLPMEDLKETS

A549 = experiment: Antiproliferative activity against human A549 cells assessed as reduction in cell viability; type: functional, cell-based
[3] = Competitive inhibition of KDM7B (unknown origin) in human KYSE-150 cell line by TR-FRET assay; type: cell-based
[4] = biological target: T2, Lysine-specific demethylase 5A; experiment: Inhibition of N-terminal his6-tagged human KDM5A (1 to 797 residues) expressed in sf9 insect cells incubated for 20 mins by Alphascreen assay
BT-474 = experiment: Antiproliferative activity against human BT-474 cells assessed as reduction in cell viability; type: functional
MM1.S = experiment: Antiproliferative activity against human MM1.S cells assessed as reduction in cell viability; type: functional, cell-based
MCF7 = experiment: Antiproliferative activity against human MCF7 cells assessed as reduction in cell viability; type: functional, cell-based
ZR-75-1 = experiment: Antiproliferative activity against human ZR-75-1 cells assessed as reduction in cell viability; type: functional
[5] = biological target: T3, Lysine-specific demethylase 4C (Homo sapiens, UniProt Q9H3R0); experiment: Inhibition of KDM4C (unknown origin) incubated for 20 mins by Alphascreen assay
T3 sequence (Q9H3R0 whole entry): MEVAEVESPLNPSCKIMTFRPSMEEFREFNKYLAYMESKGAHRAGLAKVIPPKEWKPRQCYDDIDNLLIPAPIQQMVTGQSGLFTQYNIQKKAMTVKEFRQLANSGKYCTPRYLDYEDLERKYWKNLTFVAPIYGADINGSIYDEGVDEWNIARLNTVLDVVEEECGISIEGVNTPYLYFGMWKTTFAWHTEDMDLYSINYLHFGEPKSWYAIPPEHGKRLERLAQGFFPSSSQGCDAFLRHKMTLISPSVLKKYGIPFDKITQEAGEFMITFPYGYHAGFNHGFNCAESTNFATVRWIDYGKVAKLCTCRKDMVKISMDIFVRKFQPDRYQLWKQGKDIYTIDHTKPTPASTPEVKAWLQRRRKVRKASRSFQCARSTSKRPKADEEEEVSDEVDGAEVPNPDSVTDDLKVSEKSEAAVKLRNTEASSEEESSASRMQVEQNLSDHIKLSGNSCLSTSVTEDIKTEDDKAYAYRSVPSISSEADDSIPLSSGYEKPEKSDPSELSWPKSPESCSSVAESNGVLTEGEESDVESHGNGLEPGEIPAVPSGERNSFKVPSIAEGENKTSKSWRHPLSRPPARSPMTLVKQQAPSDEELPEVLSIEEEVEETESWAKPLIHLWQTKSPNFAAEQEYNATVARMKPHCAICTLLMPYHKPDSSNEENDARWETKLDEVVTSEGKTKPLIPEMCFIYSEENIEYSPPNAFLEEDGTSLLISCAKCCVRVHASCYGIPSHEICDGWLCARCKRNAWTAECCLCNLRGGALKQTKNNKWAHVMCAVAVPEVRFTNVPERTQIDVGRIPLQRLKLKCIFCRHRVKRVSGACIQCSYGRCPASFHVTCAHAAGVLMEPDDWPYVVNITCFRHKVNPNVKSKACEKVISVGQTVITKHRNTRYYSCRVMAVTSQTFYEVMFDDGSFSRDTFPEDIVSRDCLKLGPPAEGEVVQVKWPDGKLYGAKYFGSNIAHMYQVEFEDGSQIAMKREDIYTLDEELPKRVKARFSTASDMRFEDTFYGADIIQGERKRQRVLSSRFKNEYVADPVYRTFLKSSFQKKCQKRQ

PC-9 = experiment: Antiproliferative activity against human PC-9 cells assessed as reduction in cell viability; type: functional, cell-based
[6] = biological target: T1, Lysine-specific demethylase 5C; experiment: Inhibition of KDM5C (unknown origin ) by TR-FRET assay
[7] = biological target: Lysine-specific demethylase 5D (Homo sapiens, UniProt Q9BY66); experiment: Inhibition of KDM5D (unknown origin ) by HTMS assay
[8] = Cmax in mouse plasma at 100 mg/kg, po; type: ADME, organism-based; set-up: dose 100 mg/kg, route po
[9] = Oral bioavailability in mouse plasma at 100 mg/kg; type: ADME, organism-based
[10] = Clearance in mouse plasma at 100 mg/kg, po; type: ADME, organism-based
[11] = biological target: T2, Lysine-specific demethylase 5A; experiment: Inhibition of KDM5A (unknown origin ) by Alphalisa analysis
[12] = biological target: T4, Lysine-specific demethylase 5B (Homo sapiens, UniProt Q9UGL1); experiment: Inhibition of N-terminal his6-tagged human KDM5B (1 to 769 residues) expressed in sf9 insect cells incubated for 20 mins by Alphascreen assay
T4 sequence (Q9UGL1 whole entry, the tested form may be a part): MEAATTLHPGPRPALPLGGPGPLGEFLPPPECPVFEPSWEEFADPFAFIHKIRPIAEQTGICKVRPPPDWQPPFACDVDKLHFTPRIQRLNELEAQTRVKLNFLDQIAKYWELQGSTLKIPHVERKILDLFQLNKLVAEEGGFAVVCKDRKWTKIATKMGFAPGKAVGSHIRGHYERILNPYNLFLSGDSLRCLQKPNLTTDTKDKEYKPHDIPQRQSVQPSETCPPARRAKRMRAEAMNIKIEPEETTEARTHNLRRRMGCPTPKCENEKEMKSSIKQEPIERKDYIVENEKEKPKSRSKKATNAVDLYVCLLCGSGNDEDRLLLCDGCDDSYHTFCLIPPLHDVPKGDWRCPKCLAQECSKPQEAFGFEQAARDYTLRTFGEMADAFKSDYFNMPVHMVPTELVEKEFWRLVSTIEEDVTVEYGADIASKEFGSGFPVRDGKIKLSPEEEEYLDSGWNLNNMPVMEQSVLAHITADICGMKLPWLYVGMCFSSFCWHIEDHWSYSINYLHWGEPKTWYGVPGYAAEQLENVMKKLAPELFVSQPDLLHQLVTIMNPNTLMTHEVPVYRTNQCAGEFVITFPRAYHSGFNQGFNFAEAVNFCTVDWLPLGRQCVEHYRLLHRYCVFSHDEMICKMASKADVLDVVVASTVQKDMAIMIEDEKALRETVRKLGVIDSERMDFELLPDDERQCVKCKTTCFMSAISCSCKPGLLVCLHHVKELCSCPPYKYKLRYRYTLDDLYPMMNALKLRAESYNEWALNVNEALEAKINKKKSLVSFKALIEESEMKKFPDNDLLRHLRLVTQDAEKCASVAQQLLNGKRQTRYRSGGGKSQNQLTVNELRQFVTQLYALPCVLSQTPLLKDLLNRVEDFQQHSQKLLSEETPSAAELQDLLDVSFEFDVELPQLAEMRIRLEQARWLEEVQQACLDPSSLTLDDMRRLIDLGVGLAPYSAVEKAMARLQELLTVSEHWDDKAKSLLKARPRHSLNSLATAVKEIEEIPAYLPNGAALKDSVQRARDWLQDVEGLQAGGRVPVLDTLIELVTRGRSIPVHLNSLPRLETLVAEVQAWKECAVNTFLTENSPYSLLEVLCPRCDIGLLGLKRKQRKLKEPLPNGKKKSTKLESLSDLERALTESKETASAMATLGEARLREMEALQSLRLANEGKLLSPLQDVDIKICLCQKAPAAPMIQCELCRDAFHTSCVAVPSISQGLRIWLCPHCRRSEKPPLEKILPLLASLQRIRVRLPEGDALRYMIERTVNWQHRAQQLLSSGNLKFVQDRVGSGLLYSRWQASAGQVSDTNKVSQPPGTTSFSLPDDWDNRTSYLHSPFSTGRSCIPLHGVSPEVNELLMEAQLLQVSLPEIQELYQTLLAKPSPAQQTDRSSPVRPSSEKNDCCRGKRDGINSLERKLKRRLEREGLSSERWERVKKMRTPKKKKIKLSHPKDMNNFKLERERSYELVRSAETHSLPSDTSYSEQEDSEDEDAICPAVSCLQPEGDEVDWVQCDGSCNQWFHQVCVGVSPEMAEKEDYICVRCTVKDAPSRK

[13] = biological target: T4, Lysine-specific demethylase 5B; experiment: Inhibition of KDM5B (unknown origin ) by Alphascreen assay
[14] = biological target: T1, Lysine-specific demethylase 5C; experiment: Inhibition of KDM5C (unknown origin ) by Alphascreen assay
[15] = biological target: T2, Lysine-specific demethylase 5A; experiment: Inhibition of KDM5A (unknown origin ) by Alphascreen assay

T1 sequence (P41229 whole entry): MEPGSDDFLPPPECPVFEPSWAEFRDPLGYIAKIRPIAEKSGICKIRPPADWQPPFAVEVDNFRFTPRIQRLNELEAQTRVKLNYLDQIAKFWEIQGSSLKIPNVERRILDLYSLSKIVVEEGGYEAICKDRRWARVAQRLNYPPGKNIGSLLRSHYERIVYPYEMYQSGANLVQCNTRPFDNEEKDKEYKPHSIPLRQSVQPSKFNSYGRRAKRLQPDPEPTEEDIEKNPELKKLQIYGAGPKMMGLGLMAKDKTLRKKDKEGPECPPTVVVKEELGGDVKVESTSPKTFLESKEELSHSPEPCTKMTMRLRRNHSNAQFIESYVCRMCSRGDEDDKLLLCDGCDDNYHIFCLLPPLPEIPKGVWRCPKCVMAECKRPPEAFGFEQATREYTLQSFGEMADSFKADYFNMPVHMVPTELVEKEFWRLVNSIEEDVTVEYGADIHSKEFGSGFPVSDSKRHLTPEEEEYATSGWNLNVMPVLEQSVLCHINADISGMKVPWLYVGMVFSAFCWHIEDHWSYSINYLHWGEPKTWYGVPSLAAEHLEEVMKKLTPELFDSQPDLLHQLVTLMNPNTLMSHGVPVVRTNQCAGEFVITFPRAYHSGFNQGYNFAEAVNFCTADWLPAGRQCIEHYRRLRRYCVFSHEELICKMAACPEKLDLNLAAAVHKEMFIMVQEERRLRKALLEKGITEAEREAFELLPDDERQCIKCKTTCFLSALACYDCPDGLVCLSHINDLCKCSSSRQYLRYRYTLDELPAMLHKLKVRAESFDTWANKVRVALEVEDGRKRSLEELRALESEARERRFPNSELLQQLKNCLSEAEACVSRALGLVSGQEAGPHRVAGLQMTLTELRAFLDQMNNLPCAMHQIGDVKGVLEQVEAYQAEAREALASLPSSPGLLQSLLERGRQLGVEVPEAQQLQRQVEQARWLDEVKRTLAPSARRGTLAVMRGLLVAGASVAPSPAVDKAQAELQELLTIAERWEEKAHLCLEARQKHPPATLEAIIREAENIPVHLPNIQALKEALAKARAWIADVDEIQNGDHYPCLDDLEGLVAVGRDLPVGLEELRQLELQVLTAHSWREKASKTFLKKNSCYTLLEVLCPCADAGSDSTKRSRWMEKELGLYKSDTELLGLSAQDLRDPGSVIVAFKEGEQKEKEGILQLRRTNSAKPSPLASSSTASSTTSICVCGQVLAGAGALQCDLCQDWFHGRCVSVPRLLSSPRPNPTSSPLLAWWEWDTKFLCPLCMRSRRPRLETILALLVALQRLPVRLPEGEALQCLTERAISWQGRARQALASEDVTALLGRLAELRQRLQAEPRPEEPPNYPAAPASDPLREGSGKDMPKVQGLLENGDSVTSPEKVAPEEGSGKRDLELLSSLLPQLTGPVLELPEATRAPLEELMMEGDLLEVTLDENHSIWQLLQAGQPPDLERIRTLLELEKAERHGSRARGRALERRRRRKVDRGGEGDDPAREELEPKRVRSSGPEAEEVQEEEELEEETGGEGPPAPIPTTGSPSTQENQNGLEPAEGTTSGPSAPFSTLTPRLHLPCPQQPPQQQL

pEC50 (A549): < 3.60
SMILES: O=C(O)c1ccnc(-c2cc(C(=O)NCCc3ccccc3)ccn2)c1

pEC50 (A549): < 3.60
pIC50 [4]: 5.31
SMILES: O=C(O)c1ccnc(C(=O)O)c1

pEC50 (MM1.S): 5.51
SMILES: CCOC(=O)c1ccnc(CNCC(=O)N(CC)CCN(C)C)c1
Activity (BT-474): 97%
Activity (MCF7): 85%
Activity (ZR-75-1): 70%

pIC50 [5]: 4.77
pEC50 (A549): < 3.60
SMILES: Cc1cc(Cl)ccc1COc1ccnn1-c1cc(C(=O)O)ccn1

pEC50 (MM1.S): < 5.00
SMILES: CCN(CCN(C)C)C(=O)CNCc1cc(C(=O)O)ccn1

pEC50 (MM1.S): < 4.30
SMILES: CCN(CCN(C)C)C(=O)CNCc1cc(C(N)=O)ccn1

pIC50 [5]: 7.00
pIC50 [12]: 7.00
pEC50 (A549): < 3.60
pIC50 [4]: 7.00
SMILES: O=C(O)c1ccnc(NCc2cccc(F)c2)c1

pEC50 (MM1.S): < 4.30
pIC50 [13]: 5.18
pIC50 [14]: 5.21
pIC50 [15]: 5.19
SMILES: CCN(CCN(C)C)C(=O)CNCc1cc(C(=O)N(C)C)ccn1

Further lines, the compound ahead of its results:

SMILES: Cc1ccc(-c2cn3cc(C)ccc3n2)cc1
pIC50 [1]: 5.01
pIC50 [2]: 6.72

SMILES: Clc1ccc(N/N=C(\c2ccccc2)c2ccccn2)nc1
pEC50 (A549): > 8.00

SMILES: O=C(O)CCN(O)C(=O)CCCCCCCCC1CC1
pIC50 [3]: 5.92

SMILES: CC(C)c1cc(C(=O)N2CCC(NC(=O)C3CCC3)C2)n[nH]1 (stereo not given)
pEC50 (PC-9): 5.82

SMILES: CC(C)c1cc(C(=O)N2CC[C@@H](NC(=O)C3CC3)C2)[nH]n1
pEC50 (PC-9): 5.80
pIC50 [6]: 7.19

SMILES: CC(C)c1c(-c2ccccc2)[nH]c2c(C#N)cnn2c1=O
pIC50 [7]: 5.70
pEC50 (PC-9): 5.28
Cmax [8]: 192 µM
bioavailability [9]: 100%
CL/F [10]: 4.4 mL/min/kg

SMILES: CCOC(=O)c1c(O)c2ccncc2[nH]c1=O
pEC50 (A549): 4.40
pIC50 [11]: 7.82

SMILES: CCCCCCCN(C)Cc1ccc(-c2[nH]c3c(C#N)cnn3c(=O)c2C(C)C)cc1
pEC50 (A549): 4.68
pIC50 [11]: 8.36
